From PubChem BioAssay AID1919004 (Molecular Pharmacology Branch, DTP, NCI, 2023)
pIC50: −log10 of the molar value. Blank lines part the entries; values can stand above or below the compound they belong to.

Tested on: 883617-216-R-J1-PDC complex spheroids, growth, % test/control
Assay: Anticancer human tumor 883617-216-R-J1-PDC patient-derived bladder carcinoma cell line growth inhibition [AhR]
Details: for pIC50: curve of first compound; for viability, T/C: stronger effect = lower value
From the text: Multicellular complex tumor spheroid response to aryl hydrocarbon receptor antagonists in combination with a variety of drugs and investigational agents in selected tumor cell lines
The current study was undertaken to assess response to aryl hydrocarbon receptor antagonists in combination with standard-of-care drugs and investigational agents in solid tumor complex spheroid models. Complex spheroids include a stromal component modeled by human endothelial cells (HUVEC) and fibroblasts modeled by human mesenchymal stem cells (MSCs). The concentration ranges selected for each drug and investigational agent were based upon clinically achievable concentrations if the clinical Cmax of the agent was known.
Compounds. The drugs and investigational agents: BAY 2416964 (NSC825713), GNF351 (NSC835774), CH-223191 (NSC835775), CPI-455 (NSC825282), aza-TdCyd (NSC777586), decitabine (NSC127716), belinostat (NSC758774), entinostat (NSC756642), pevonedistat (NSC761192), tazemetostat (NSC777109), talazoparib (NSC765396), olaparib (NSC753686), selinexor (NSC780203), nedisertib (M3814, NSC802822), bortezomib (NSC756655), venetoclax (NSC766270), doxorubicin (NSC123127), elimusertib (BAY189344, NSC800525), ceralasertib (AZD6738, NSC777638), TAK-243 (NSC785004), alisertib (NSC759677), etoposide (NSC141540), topotecan (NSC609699), eribulin (NSC707389), gemcitabine (NSC613327), carboplatin (NSC241240), cisplatin (NSC119875), and SN-38 (NSC673596) were obtained from the National Cancer Institute (NCI) Developmental Therapeutics Program Chemical Repository (32). The FDA-approved anticancer drug set is available from the Developmental Therapeutics Program at https://dtp.cancer.gov/organization/dscb/obtaining/available plates.htm. […] The stock solutions were prepared in dimethyl sulfoxide (DMSO, Sigma-Aldrich, St. Louis, MO, cat. D2650), except for the platinum compounds which were prepared in saline (Quality Biological, Gaithersburg, MD, cat. 114-055-101), at 800-fold the tested concentration and stored at -70 degrees C prior to their use. All drugs and investigational agents were tested over a range starting from a high concentration at or near the clinical Cmax and decreasing in half-log increments. If the clinical Cmax for an agent had not been determined, the highest concentration tested was 10 microM (Table 1).
Cell Culture. All cells were maintained in an incubator at 37 degrees C and 5% CO2 with 95% humidity. The PDC lines were cultured according to standard operating procedures established by the NCI PDMR (https://pdmr.cancer.gov). Briefly, all PDCs were thawed and cultured in Matrigel-coated flasks prepared with a working solution of 1X Ham's F-12 nutrient mix, without supplementation (Invitrogen, Waltham, MA, cat. 11765054), 100 U/mL penicillin-streptomycin (Invitrogen, cat. 15140122), and 2.5% Matrigel (Corning Inc., Corning, NY, cat. 354248) for the first three passages. All PDCs were cultured in complete DMEM/F-12 media containing advanced DMEM/F-12 (Invitrogen, cat. 12634028), 4.9% defined fetal bovine serum, heat inactivated (HyClone Laboratories Inc., Logan, UT, cat. SH30070.03HI), 389 ng/mL hydrocortisone (Sigma-Aldrich, cat. H4001), 9.7 ng/mL human EGF recombinant protein (Invitrogen, cat. PHG0313), 23.4 microg/mL adenine (Sigma-Aldrich, cat. A2786), 97.3 U/mL penicillin-streptomycin (Invitrogen, cat. 15140122), 1.9 mM L-glutamine (Invitrogen, cat. 25030081), and 9.7 microM Y-27632 dihydrochloride (Tocris Bioscience, Bristol, United Kingdom, cat. 1254). The PDCs were cultured in complete DMEM/F12 media without 10 microM Y-27632 dihydrochloride for at least two passages prior to the screen. The established cell lines NCI-H1341 and […] were cultured in DMEM/F-12, HEPES (Invitrogen, cat. 11330032), 5% defined fetal bovine serum (HyClone Laboratories Inc., cat. SH30070.03), ITS premix universal culture supplement [insulin (5 microg/mL), transferrin (5 microg/mL), and selenious acid (5 ng/mL)] […]

[1] = second compound 0.1 µM, first compound 0.00316 µM
[2] = second compound 0.1 µM, first compound 0.01 µM
[3] = second compound 0.1 µM, first compound 0.0316 µM
[4] = second compound 0.1 µM, first compound 0.1 µM
[5] = second compound 0.1 µM, first compound 0.316 µM
[6] = second compound 0.1 µM, first compound 1 µM
[7] = second compound 0.316 µM, first compound 0.00316 µM
[8] = second compound 0.316 µM, first compound 0.01 µM
[9] = second compound 0.316 µM, first compound 0.0316 µM
[10] = second compound 0.316 µM, first compound 0.1 µM
[11] = second compound 0.316 µM, first compound 0.316 µM
[12] = second compound 0.316 µM, first compound 1 µM
[13] = second compound 1 µM, first compound 0.00316 µM
[14] = second compound 1 µM, first compound 0.01 µM
[15] = second compound 1 µM, first compound 0.0316 µM
[16] = second compound 1 µM, first compound 0.1 µM
[17] = second compound 1 µM, first compound 0.316 µM
[18] = second compound 1 µM, first compound 1 µM
[19] = second compound 3.16 µM, first compound 0.00316 µM
[20] = second compound 3.16 µM, first compound 0.01 µM
[21] = second compound 3.16 µM, first compound 0.0316 µM
[22] = second compound 3.16 µM, first compound 0.1 µM
[23] = second compound 3.16 µM, first compound 0.316 µM
[24] = second compound 3.16 µM, first compound 1 µM
[25] = second compound 10 µM, first compound 0.00316 µM
[26] = second compound 10 µM, first compound 0.01 µM
[27] = second compound 10 µM, first compound 0.0316 µM
[28] = second compound 10 µM, first compound 0.1 µM
[29] = second compound 10 µM, first compound 0.316 µM
[30] = second compound 10 µM, first compound 1 µM
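Also: exposure lasted 7 days after dosing on day 3 of spheroid growth.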

- pIC50 (second compound 0.1 µM): < 6.00
- pIC50 (second compound 0.316 µM): < 6.00
- pIC50 (second compound 1 µM): < 6.00
- pIC50 (second compound 3.16 µM): < 6.00
- pIC50 (second compound 10 µM): < 6.00
Compound: CC1COCCN1c1cc(-c2ccnn2C)c2ccnc(-c3ccn[nH]3)c2n1 (stereo not given) + CC(CO)NC(=O)c1cc(-c2ccc(Cl)cc2)nn(-c2cnn(C)c2)c1=O
- viability, T/C [1]: 70.5%
- viability, T/C [2]: 80.7%
- viability, T/C [3]: 55.6%
- viability, T/C [4]: 87.4%
- viability, T/C [5]: 73.9%
- viability, T/C [6]: 56.8%
- viability, T/C [7]: 80.9%
- viability, T/C [8]: 85.6%
- viability, T/C [9]: 88.2%
- viability, T/C [10]: 63.8%
- viability, T/C [11]: 48.5%
- viability, T/C [12]: 53.1%
- viability, T/C [13]: 88.8%
- viability, T/C [14]: 82.5%
- viability, T/C [15]: 114%
- viability, T/C [16]: 100%
- viability, T/C [17]: 53.5%
- viability, T/C [18]: 54%
- viability, T/C [19]: 58.3%
- viability, T/C [20]: 69.8%
- viability, T/C [21]: 72.8%
- viability, T/C [22]: 73.2%
- viability, T/C [23]: 61.7%
- viability, T/C [24]: 53.2%
- viability, T/C [25]: 65.8%
- viability, T/C [26]: 64.2%
- viability, T/C [27]: 72.8%
- viability, T/C [28]: 53.8%
- viability, T/C [29]: 54.4%
- viability, T/C [30]: 72%

- pIC50 (second compound 0.1 µM): < 6.00
- pIC50 (second compound 0.316 µM): < 6.00
- pIC50 (second compound 1 µM): < 6.00
- pIC50 (second compound 3.16 µM): < 6.00
- pIC50 (second compound 10 µM): > 8.50
Compound: Nc1ncn(C2CC(O)C(CO)O2)c(=O)n1 (stereo not given) + Cc1cncc(-c2nc(NCCc3c[nH]c4ccccc34)c3ncn(C(C)C)c3n2)c1
- viability, T/C [1]: 81.2%
- viability, T/C [2]: 76.9%
- viability, T/C [3]: 76.2%
- viability, T/C [4]: 73.1%
- viability, T/C [5]: 77.9%
- viability, T/C [6]: 67.7%
- viability, T/C [7]: 92.2%
- viability, T/C [8]: 89.5%
- viability, T/C [9]: 84.5%
- viability, T/C [10]: 74.1%
- viability, T/C [11]: 71.3%
- viability, T/C [12]: 79.6%
- viability, T/C [13]: 92.1%
- viability, T/C [14]: 89.8%
- viability, T/C [15]: 84.8%
- viability, T/C [16]: 77.2%
- viability, T/C [17]: 86.1%
- viability, T/C [18]: 78.7%
- viability, T/C [19]: 97.2%
- viability, T/C [20]: 87.5%
- viability, T/C [21]: 104%
- viability, T/C [22]: 99.8%
- viability, T/C [23]: 103%
- viability, T/C [24]: 84.2%
- viability, T/C [25]: 43.5%
- viability, T/C [26]: 42.6%
- viability, T/C [27]: 45.2%
- viability, T/C [28]: 47.7%
- viability, T/C [29]: 51.2%
- viability, T/C [30]: 55%

- pIC50 (second compound 0.1 µM): 8.13
- pIC50 (second compound 0.316 µM): 8.10
- pIC50 (second compound 1 µM): 8.12
- pIC50 (second compound 3.16 µM): 8.10
- pIC50 (second compound 10 µM): 8.00
Compound: CC(C)CC(NC(=O)C(Cc1ccccc1)NC(=O)c1cnccn1)B(O)O (stereo not given) + Cc1ccccc1N=Nc1ccc(NC(=O)c2ccnn2C)c(C)c1
- viability, T/C (second compound 0.1 µM, first compound 0.000949 µM): 85.9%
- viability, T/C (second compound 0.1 µM, first compound 0.003 µM): 97.5%
- viability, T/C (second compound 0.1 µM, first compound 0.00949 µM): 39.1%
- viability, T/C (second compound 0.1 µM, first compound 0.03 µM): 0.08%
- viability, T/C (second compound 0.1 µM, first compound 0.0949 µM): 0.03%
- viability, T/C (second compound 0.1 µM, first compound 0.3 µM): 0.11%
- viability, T/C (second compound 0.316 µM, first compound 0.000949 µM): 90.5%
- viability, T/C (second compound 0.316 µM, first compound 0.003 µM): 92.7%
- viability, T/C (second compound 0.316 µM, first compound 0.00949 µM): 42.1%
- viability, T/C (second compound 0.316 µM, first compound 0.03 µM): 0.06%
- viability, T/C (second compound 0.316 µM, first compound 0.0949 µM): 0.05%
- viability, T/C (second compound 0.316 µM, first compound 0.3 µM): 0.11%
- viability, T/C (second compound 1 µM, first compound 0.000949 µM): 84.8%
- viability, T/C (second compound 1 µM, first compound 0.003 µM): 89.4%
- viability, T/C (second compound 1 µM, first compound 0.00949 µM): 40.9%
- viability, T/C (second compound 1 µM, first compound 0.03 µM): 0.08%
- viability, T/C (second compound 1 µM, first compound 0.0949 µM): 0.03%
- viability, T/C (second compound 1 µM, first compound 0.3 µM): 0.1%
- viability, T/C (second compound 3.16 µM, first compound 0.000949 µM): 79.4%
- viability, T/C (second compound 3.16 µM, first compound 0.003 µM): 88.2%
- viability, T/C (second compound 3.16 µM, first compound 0.00949 µM): 43.8%
- viability, T/C (second compound 3.16 µM, first compound 0.03 µM): 0.11%
- viability, T/C (second compound 3.16 µM, first compound 0.0949 µM): 2.06%
- viability, T/C (second compound 3.16 µM, first compound 0.3 µM): 0.76%
- viability, T/C (second compound 10 µM, first compound 0.000949 µM): 78%
- viability, T/C (second compound 10 µM, first compound 0.003 µM): 80.8%
- viability, T/C (second compound 10 µM, first compound 0.00949 µM): 51.9%
- viability, T/C (second compound 10 µM, first compound 0.03 µM): 0.17%
- viability, T/C (second compound 10 µM, first compound 0.0949 µM): 0.62%
- viability, T/C (second compound 10 µM, first compound 0.3 µM): 0.21%
